Data as given in patent US4111955A, “N-Trihalomethanesulfenyl carbamoyloximino di-sulfur heterocyclic compounds” (priority 1976, dated 1978).

Legend:
Format in all cases: in vivo
[1] = test system: bean aphid (Aphis fabae Scop.); assay: Bean Aphid Foliage Spray Test; parameters: key to pesticidal activity rating, Aphid: A: excellent control; B: partial control; C: no control; details: 500 parts per million, 24 hour
Description: Adults and nymphal stages of the bean aphid (Aphis fabae Scop.) reared on potted dwarf nasturtium plants at 65°-70° F. and 50-70 percent relative humidity, constituted the test insects. For testing purposes, the number of aphids per pot was standardized to 100-150 by trimming plants containing excess aphids.
The test compounds were formulated by diluting the stock suspension with water to give a suspension containing 500 parts of test compound per million parts of final formulation.
The potted plants (one pot per compound tested) infested with 100-150 aphids, were placed on a revolving turntable and sprayed with 100-110 milliliters of test compound formulation by use of a DeVilbiss spray gun set at 40 psig. air pressure. This application, which lasted 25 seconds, was sufficient to wet the plants to run-off. As a control, 100-110 milliliters of a water-acetone-emulsifier solution containing no test compound were also sprayed on infested plants. After spraying, the pots were placed on their sides on a sheet of white standard mimeograph paper which had been previously ruled to facilitate counting. Temperature and humidity in the test room during the 24 hour holding period were 65°-70° F. and 50-70 percent, respectively. Aphids which fell onto the paper and were unable to remain standing after being uprighted were considered dead. Aphids remaining on the plants were observed closely for movement and those which were unable to move the length of the body upon stimulation by prodding were considered dead. Percent mortality was recorded for various concentration levels.
(§1) In these tests the pesticidal activity of the compounds against aphid, mite, Southern Armyworm, Bean Beetle and House fly was rated as follows:
(§2) The LD50 values shown in the above Table II were determined by testing the compositions over an appropriate concentration range obtained by serial dilution of the stock suspension with water. The percent kill was plotted on log-probit graph paper versus parts per million concentration, and the LD50 read from an eye-fitted line drawn through the resultant points.

[2] = test system: two-spotted mite (Tetranychus urticae Koch); assay: Mite Foliage Spray Test; parameters: key to pesticidal activity rating, Mite: A: excellent control; B: partial control; C: no control; details: 500 parts per million, 6 days
Description: Adults and nymphal stages of the two-spotted mite (Tetranychus urticae Koch), reared on Tendergreen bean plants at 80±5 percent relative humidity, were the test organisms. Infested leaves from a stock culture were placed on the primary leaves of two bean plants 6 to 8 inches in height, growing in a 21/2 inch clay pot. 150-200 Mites, a sufficient number for testing, transferred from the excised leaves to the fresh plants in a period of 24 hours. Following the 24 hour transfer period, the excised leaves were removed from the infested plants. The test compounds were formulated by diluting the stock suspension with water to give a suspension containing 500 parts of test compound per million parts of final formulation. The potted plants (one pot per compound) were placed on a revolving turntable and sprayed with 100-110 milliliters of test compound formulation by use of a DeVilbiss spray gun set at 40 psig. air pressure. This application, which lasted 25 seconds, was sufficient to wet the plants to run-off. As a control, 100-110 milliliters of a water solution containing acetone and emulsifier in the same concentrations as the test compound formulation, but containing no test compound, were also sprayed on infested plants. The sprayed plants were held at 80±5 percent relative humidity for 6 days, after which a mortality count of motile forms was made. Microscopic examination for motile forms was made on the leaves of the test plants. Any individual which was capable of locomotion upon prodding was considered living.
as §1, §2

[3] = test system: southern armyworm (Prodenia eridania, (Cram.)); assay: Southern Armyworm Leaf Spray Test; parameters: key to pesticidal activity rating, Armyworm: A: excellent control; B: partial control; C: no control; details: 500 parts per million, 3 days
Description: Larvae of the southern armyworm (Prodenia eridania, (Cram.)), reared on Tendergreen bean plants at a temperature of 80°±5° F. and a relative humidity of 50±5 percent, constituted the test insects.
The test compounds were formulated by diluting the stock suspension with water to give a suspension containing 500 parts of test compound per million parts of final formulation. Potted Tendergreen bean plants of standard height and age were placed on a revolving turntable and sprayed with 100-110 milliliters of test compound formulation by use of a DeVilbiss spray gun set at 10 psig air pressure. This application, which lasted 25 seconds, was sufficient to wet plants to run-off. As a control, 100-110 milliliters of a water-acetone-emulsifier solution containing no test compound were also sprayed on infested plants. When dry, the paired leaves were separated and each one was placed in a 9 centimeter Petri dish lined with moistened filter paper. Five randomly selected larvae were introduced into each dish and the dishes were closed. The closed dishes were labeled and held at 80°-85° F. for 3 days. Although the larvae could easily consume the whole leaf within 24 hours, no more food was added. Larvae which were unable to move the length of the body, even upon stimulation by prodding, were considered dead. Percent mortality was recorded for various concentration levels.
as §1, §2

[4] = test system: Mexican bean beetle (Epilachna varivestis, Muls.); assay: Mexican Bean Beetle Leaf Spray Test; parameters: key to pesticidal activity rating, Bean beetle: A: excellent control; B: partial control; C: no control; details: leaf spray, 500 parts per million, 3 days
Description: Fourth instar larvae of the Mexican bean beetle (Epilachna varivestis, Muls.), reared on Tendergreen bean plants at a temperature of 80°±5° F. and 50±5 percent relative humidity, were the test insects.
The test compounds were formulated by diluting the stock suspension with water to give a suspension containing 500 parts of test compound per million parts of final formulation. Potted Tendergreen bean plants of standard height and age were placed on a revolving turntable and sprayed with 100-110 milliliters of test compound formulation by use of a DeVilbiss spray gun set at 10 psig air pressure. This application, which lasted 25 seconds, was sufficient to wet plants to run-off. As a control, 100-110 milliliters of a water-acetone-emulsifier solution containing no test compound were also sprayed on infested plants. When dry, the paired leaves were separated and each was placed in a 9 centimeter Petri dish lined with moistened filter paper. Five randomly selected larvae were introduced into each dish, and the dishes were closed. The closed dishes were labeled and held at a temperature of 80°±5° F. for 3 days. Although the larvae could easily consume the leaf within 24 to 48 hours, no more food was added. Larvae which were unable to move the length of the body, even upon stimulation, were considered dead.
as §1, §2

[5] = test system: house flies (Musca domestica, L.); assay: Fly Bait Test; parameters: key to pesticidal activity rating, Housefly: A: excellent control; B: partial control; C: no control; details: 500 parts per million, 24 hours
Description: Four to 6 day old adult house flies (Musca domestica, L.), reared according to the specifications of the Chemical Specialities Manufacturing Association (Blue Book, McNair-Dorland Co., N.Y. 1954; pages 243-244, 261) under controlled conditions of 80°±5° F. and 50±5 percent relative humidity, were the test insects. The flies were immobilized by anesthetizing with carbon dioxide and twenty five immobilized individuals, males and females, were transferred to a cage consisting of a standard food strainer about 5 inches in diameter which was inverted over a wrapping-paper-covered surface. The test compounds were formulated by diluting the stock suspension with a 10 percent (by weight) sugar solution to give a suspension containing 500 parts of test compound per million parts of final formulation, by weight. Ten milliliters of the test formulation were added to a souffle cup containing a 1-inch square of an absorbent cotton pad. This bait cup was introduced and centered on the blotting paper under the food strainer prior to admitting the anesthetized flies. The caged flies were allowed to feed on the bait for 24 hours, at a temperature of 80°±5° F. and the relative humidity of 50±5 percent.
as §1, §2

[6] = Peroral toxicity to mammals (rat); details: in vivo, po; rat, peroral, Table I; read-out: Rat P.O. LD50
Description: Certain of these compositions were also evaluated to determine their peroral toxicity to mammals. The animal selected for this experiment was the rat. The test results obtained are expressed in terms of the number of milligrams of composition per kilogram of weight of the animal required to achieve a mortality rate of 50 percent (LD50).

Compound | pesticidal activity rating, Aphid [1] | pesticidal activity rating, Mite [2] | pesticidal activity rating, Armyworm [3] | pesticidal activity rating, Bean beetle [4] | pesticidal activity rating, Housefly [5] | LD50 [6] [mg/kg]
CN(SC(Cl)(Cl)Cl)C(=O)ON=C1CSC(C)(C)S1 | A | A | C | A | A | –
CN(SC(Cl)(Cl)Cl)C(=O)ON=C1SCCSC1(C)C | A | A | A | A | B | 7.07
CCCC1SCCSC1=NOC(=O)N(C)SC(Cl)(Cl)Cl (centres unmarked) | B | C | C | A | A | –
CC1SCCSC1=NOC(=O)N(C)SC(Cl)(Cl)Cl (centres unmarked) | A | A | A | A | A | –
CN(SC(Cl)(Cl)Cl)C(=O)ON=C1C[S+]([O-])CCS1 (centres unmarked) [2-O-[(N-METHYL-N-TRICHLOROMETHANESULFENYL) CARBAMOYLOXIMINO]-1,4-DITHIANE-4-OXIDE] | A | A | A | A | A | 28.3
CN(SC(F)(F)F)C(=O)ON=C1CSCCS1 [2-O-[(N-METHYL-N-TRIFLUOROMETHANESULFENYL)-CARBAMOYLOXIMINO]-1,4-DITHIANE] | A | A | A | A | A | –
CN(SC(Cl)(Cl)Cl)C(=O)ON=C1CSCS1 [4-[(N-METHYL-N-TRICHLOROMETHANESULFENYL)-CARBAMOYLOXIMINO]-1,3-DITHIOLANE] | A | A | A | A | A | 75
CNC(=O)ON=C1CSCS1 [drawing 5 --NHCH3, reference compound] | A | A | A | A | A | 13
CNC(=O)ON=C1CSC(C)(C)S1 [drawing 6 --NHCH3, reference compound] | A | A | B | A | A | –
CNC(=O)ON=C1SCCSC1(C)C [drawing 7 --NHCH3, reference compound] | A | A | A | A | A | 0.3
CCCC1SCCSC1=NOC(=O)NC (centres unmarked) [drawing 9 --NHCH3, reference compound] | A | C | C | A | A | –
CNC(=O)ON=C1C[S+]([O-])CCS1 (centres unmarked) [drawing 10 --NHCH3, reference compound] | C | A | A | A | A | 12.3
CNC(=O)ON=C1SCCSC1C (centres unmarked) [drawing 11 --NHCH3, reference compound] | A | A | A | A | A | –
